Experimental data reported in patent US6737383B1, “Herbicidal oxadiazolidines” (priority 1999, dated 2004).

Assays:
cocklebur = assay: Test B pre/postemergence cocklebur; format: in vivo, Xanthium strumarium
Summary of the method: (§1)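 Herbicidal effect was estimated by eye on a ten-point control scale after plants spent twelve to sixteen days in a greenhouse following soil or foliar treatment. Foliar sprays targeted plants at one to four leaves; all doses were formulated in a non-phytotoxic solvent with surfactant.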

corn = assay: Test B pre/postemergence corn; format: in vivo, Zea mays
Summary of the method: as §1

crabgrass = assay: Test B pre/postemergence crabgrass; format: in vivo, Digitaria sanguinalis
Summary of the method: as §1

giant foxtail = assay: Test B pre/postemergence giant foxtail; format: in vivo, Setaria faberii
Summary of the method: as §1

morningglory = assay: Test B pre/postemergence morningglory; format: in vivo, Ipomoea hederacea
Summary of the method: as §1

pigweed = assay: Test B pre/postemergence pigweed; format: in vivo, Amaranthus retroflexus
Summary of the method: as §1

rape = assay: Test B pre/postemergence rape; format: in vivo, Brassica napus
Summary of the method: as §1

soybean = assay: Test B pre/postemergence soybean; format: in vivo, Glycine max
Summary of the method: as §1

sugar beet = assay: Test B pre/postemergence sugar beet; format: in vivo, Beta vulgaris
Summary of the method: as §1

velvetleaf = assay: Test B pre/postemergence velvetleaf; format: in vivo, Abutilon theophrasti
Summary of the method: as §1

wheat = assay: Test B pre/postemergence wheat; format: in vivo, Triticum aestivum
Summary of the method: as §1

wild oat = assay: Test B pre/postemergence wild oat; format: in vivo, Avena fatua
Summary of the method: as §1

purple nutsedge = assay: Test B pre/postemergence purple nutsedge; format: in vivo, Cyperus rotundus
Summary of the method: as §1

rice = assay: Test B flood test rice; format: in vivo, Oryza sativa
Summary of the method: (§2)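 Plants were grown to the 2-leaf stage before treatment with test chemical, then held in a greenhouse for twelve to sixteen days. Injury was visually rated against untreated controls on a 0–10 scale, where 0 is no effect and 10 is complete control.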

duck salad = assay: Test B flood test duck salad; format: in vivo, Heteranthera limosa
Summary of the method: as §2

bamyardgrass = assay: Test B flood test barnyardgrass; format: in vivo, Echinochloa crus-galli
Summary of the method: as §2

[1] = Postemergence, Rate 250 g/ha, scale 0 to 10
[2] = Postemergence, Rate 500 g/ha, scale of 0 to 10 where 0 is no effect and 10 is complete control
[3] = Preemergence, Rate 62 g/ha, scale 0 to 10 (0 no effect, 10 complete control)
[4] = Preemergence, Rate 125 g/ha, scale of 0 to 10 where 0 is no effect and 10 is complete control
[5] = Preemergence, Rate 250 g/ha, scale 0 to 10, 0 is no effect, 10 is complete control
[6] = Preemergence, Rate 500 g/ha, scale 0 to 10, 0 is no effect, 10 is complete control
[7] = Rate 62 g/ha, Postemergence, scale of 0 to 10 where 0 is no effect and 10 is complete control
[8] = Rate 125 g/ha, Postemergence, scale 0 to 10, 0 is no effect, 10 is complete control
[9] = Postemergence block (flood test species), Rate 250 g/ha, scale 0 to 10
[10] = Postemergence section (flood test species), Rate 500 g/ha, scale of 0 to 10 where 0 is no effect and 10 is complete control
[11] = Rate 125 g/ha, Postemergence section (flood test species), scale 0 to 10, 0 is no effect, 10 is complete control
[12] = Rate 62 g/ha, Postemergence (flood test species), scale of 0 to 10 where 0 is no effect and 10 is complete control

## CC(C)N(C(=O)n1oc(=O)n(CCC#N)c1=O)c1ccc(F)cc1F [Compound 433]
cocklebur; [1]
  Cocklebur plant response rating: 0
cocklebur; [2]
  Cocklebur plant response rating: 0
cocklebur; [3]
  Plant response rating, Cocklebur: 0
cocklebur; [4]
  Plant response rating, Cocklebur: 0
cocklebur; [5]
  Cocklebur plant response rating: 2
cocklebur; [6]
  Cocklebur plant response rating: 3
cocklebur; [7]
  Cocklebur plant response rating: 0
cocklebur; [8]
  Cocklebur plant response rating: 0
corn; [1]
  Corn plant response rating: 0
corn; [2]
  Corn plant response rating: 3
corn; [3]
  Plant response rating, Corn: 0
corn; [4]
  Plant response rating, Corn: 0
corn; [5]
  Corn plant response rating: 0
corn; [6]
  Corn plant response rating: 0
corn; [7]
  Corn plant response rating: 0
corn; [8]
  Corn plant response rating: 0
crabgrass; [1]
  Crabgrass plant response rating: 4
crabgrass; [2]
  Crabgrass plant response rating: 9
crabgrass; [3]
  Plant response rating, Crabgrass: 9
crabgrass; [4]
  Plant response rating, Crabgrass: 10
crabgrass; [5]
  Crabgrass plant response rating: 10
crabgrass; [6]
  Crabgrass plant response rating: 10
crabgrass; [7]
  Crabgrass plant response rating: 2
crabgrass; [8]
  Crabgrass plant response rating: 2
Giant foxtail; [1]
  Giant foxtail plant response rating: 6
Giant foxtail; [2]
  Giant foxtail plant response rating: 8
Giant foxtail; [3]
  Plant response rating, Giant foxtail: 10
Giant foxtail; [4]
  Plant response rating, Giant foxtail: 10
Giant foxtail; [5]
  Giant foxtail plant response rating: 10
Giant foxtail; [6]
  Giant foxtail plant response rating: 10
Giant foxtail; [7]
  Giant foxtail plant response rating: 4
Giant foxtail; [8]
  Giant foxtail plant response rating: 4
morningglory; [1]
  Morningglory plant response rating: 4
morningglory; [2]
  Morningglory plant response rating: 7
morningglory; [3]
  Plant response rating, Morningglory: 0
morningglory; [4]
  Plant response rating, Morningglory: 0
morningglory; [5]
  Morningglory plant response rating: 2
morningglory; [6]
  Morningglory plant response rating: 3
morningglory; [8]
  Morningglory plant response rating: 2
pigweed; [1]
  Redroot pigweed plant response rating: 2
pigweed; [2]
  Redroot pigweed plant response rating: 3
pigweed; [3]
  Plant response rating, Redroot pigweed: 0
pigweed; [4]
  Plant response rating, Redroot pigweed: 4
pigweed; [5]
  Redroot pigweed plant response rating: 7
pigweed; [6]
  Redroot pigweed plant response rating: 10
pigweed; [8]
  Redroot pigweed plant response rating: 0
rape; [1]
  Rape plant response rating: 0
rape; [2]
  Rape plant response rating: 0
rape; [3]
  Plant response rating, Rape: 0
rape; [4]
  Plant response rating, Rape: 0
rape; [5]
  Rape plant response rating: 3
rape; [6]
  Rape plant response rating: 7
rape; [8]
  Rape plant response rating: 0
soybean; [1]
  Soybean plant response rating: 2
soybean; [2]
  Soybean plant response rating: 2
soybean; [3]
  Plant response rating, Soybean: 0
soybean; [4]
  Plant response rating, Soybean: 0
soybean; [5]
  Soybean plant response rating: 0
soybean; [6]
  Soybean plant response rating: 0
soybean; [8]
  Soybean plant response rating: 2
Sugar beet; [1]
  Sugarbeets plant response rating: 0
Sugar beet; [2]
  Sugarbeets plant response rating: 0
Sugar beet; [3]
  Plant response rating, Sugarbeets: 0
Sugar beet; [4]
  Plant response rating, Sugarbeets: 2
Sugar beet; [5]
  Sugarbeets plant response rating: 4
Sugar beet; [6]
  Sugarbeets plant response rating: 8
Sugar beet; [8]
  Sugarbeets plant response rating: 0
velvetleaf; [1]
  Velvetleaf plant response rating: 2
velvetleaf; [2]
  Velvetleaf plant response rating: 4
velvetleaf; [3]
  Plant response rating, Velvetleaf: 2
velvetleaf; [4]
  Plant response rating, Velvetleaf: 2
velvetleaf; [5]
  Velvetleaf plant response rating: 4
velvetleaf; [6]
  Velvetleaf plant response rating: 6
velvetleaf; [8]
  Velvetleaf plant response rating: 0
wheat; [1]
  Wheat plant response rating: 0
wheat; [2]
  Wheat plant response rating: 3
wheat; [3]
  Plant response rating, Wheat: 0
wheat; [4]
  Plant response rating, Wheat: 0
wheat; [5]
  Wheat plant response rating: 0
wheat; [6]
  Wheat plant response rating: 2
wheat; [8]
  Wheat plant response rating: 0
Wild oat; [1]
  Wild oats plant response rating: 0
Wild oat; [2]
  Wild oats plant response rating: 2
Wild oat; [3]
  Plant response rating, Wild oats: 2
Wild oat; [4]
  Plant response rating, Wild oats: 6
Wild oat; [5]
  Wild oats plant response rating: 6
Wild oat; [6]
  Wild oats plant response rating: 8
Wild oat; [8]
  Wild oats plant response rating: 0
Purple nutsedge; [1]
  Nutsedge plant response rating: 0
Purple nutsedge; [2]
  Nutsedge plant response rating: 0
Purple nutsedge; [3]
  Plant response rating, Nutsedge: 0
Purple nutsedge; [4]
  Plant response rating, Nutsedge: 0
Purple nutsedge; [5]
  Nutsedge plant response rating: 0
Purple nutsedge; [6]
  Nutsedge plant response rating: 0
Purple nutsedge; [8]
  Nutsedge plant response rating: 0
rice; [9]
  Rice plant response rating: 0
rice; [10]
  Rice plant response rating: 0
rice; [11]
  Rice plant response rating: 0
Duck salad; [9]
  Ducksalad plant response rating: 0
Duck salad; [10]
  Ducksalad plant response rating: 0
Duck salad; [12]
  Ducksalad plant response rating: 0
Duck salad; [11]
  Ducksalad plant response rating: 0
bamyardgrass; [9]
  Barnyardgrass plant response rating: 0
bamyardgrass; [10]
  Barnyardgrass plant response rating: 0
bamyardgrass; [12]
  Barnyardgrass plant response rating: 0
bamyardgrass; [11]
  Barnyardgrass plant response rating: 0
